Assay results from ChEMBL document CHEMBL1201862, “PubChem BioAssay data set” (2004).
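Following 48 hours of exposure in 96-well plates, responses at five concentrations were used to interpolate endpoints linearly. The concentration for 50% growth inhibition is given as GI50.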 Calls of active or inactive are those of the source. Cut-off read from the data, not from the text of the source: active = GI50 up to about 1.1 µM and inactive = higher.

Legend:
Test in all cases: NCI-60 cell line screen, 48 h
SK-MEL-28 = test system: SK-MEL-28
BT-549 = test system: BT-549
SK-OV-3 = test system: SK-OV-3
HL-60 = test system: HL-60
OVCAR-3 = test system: OVCAR-3
A498 = test system: A498
UACC-257 = test system: UACC-257
HCT-15 = test system: HCT-15
SR = test system: SR
LOX IMVI = test system: LOX IMVI
COLO 205 = test system: COLO 205
U-251 = test system: U-251
SN12C = test system: SN12C
K562 = test system: K562
SW-620 = test system: SW-620
A549 = test system: A549
SNB-19 = test system: SNB-19
SF-268 = test system: SF-268
MDA-MB-435 = test system: MDA-MB-435
NCI/ADR-RES = test system: NCI/ADR-RES
NCI-H460 = test system: NCI-H460
TK-10 = test system: TK-10
NCI-H522 = test system: NCI-H522
DU-145 = test system: DU-145
IGROV-1 = test system: IGROV-1
KM12 = test system: KM12
OVCAR-4 = test system: OVCAR-4
MOLT-4 = test system: MOLT-4
M14 = test system: M14
ACHN = test system: ACHN
SNB-75 = test system: SNB-75
Malme-3M = test system: Malme-3M
Hs-578T = test system: Hs-578T
UO-31 = test system: UO-31
HT-29 = test system: HT-29
MDA-N = test system: MDA-N
MCF7 = test system: MCF7
HOP-62 = test system: HOP-62
HCC 2998 = test system: HCC 2998
CCRF-CEM = test system: CCRF-CEM
T47D = test system: T47D
SF-295 = test system: SF-295
NCI-H226 = test system: NCI-H226
OVCAR-8 = test system: OVCAR-8
EKVX = test system: EKVX
RPMI-8226 = test system: RPMI-8226
SK-MEL-5 = test system: SK-MEL-5
HOP-92 = test system: HOP-92
NCI-H23 = test system: NCI-H23
MDA-MB-231 = test system: MDA-MB-231
SK-MEL-2 = test system: SK-MEL-2
HCT-116 = test system: HCT-116
CAKI-1 = test system: CAKI-1
PC-3 = test system: PC-3
OVCAR-5 = test system: OVCAR-5
786-0 = test system: 786-0
RXF 393 = test system: RXF 393
UACC-62 = test system: UACC-62
SF-539 = test system: SF-539

N#Cc1c(Nc2ccccc2)[n+]([O-])c2ccc(Cl)cc2[n+]1[O-]
GI50 (SK-MEL-28): 12.9 µM (inactive)
GI50 (BT-549): 3.44 µM (inactive)
GI50 (SK-OV-3): 21.2 µM (inactive)
GI50 (HL-60): 2.01 µM (inactive)
GI50 (OVCAR-3): 2.99 µM (inactive)
GI50 (A498): 7.69 µM (inactive)
GI50 (UACC-257): 7.28 µM (inactive)
GI50 (HCT-15): 1.89 µM
GI50 (SR): 3.16 µM (inactive)
GI50 (LOX IMVI): 3.1 µM (inactive)
GI50 (COLO 205): 2.33 µM (inactive)
GI50 (U-251): 3.15 µM (inactive)
GI50 (SN12C): 4.49 µM (inactive)
GI50 (K562): 3.03 µM (inactive)
GI50 (SW-620): 4.63 µM (inactive)
GI50 (A549): 9.86 µM (inactive)
GI50 (SNB-19): 5.51 µM (inactive)
GI50 (SF-268): 4.38 µM (inactive)
GI50 (MDA-MB-435): 8.99 µM (inactive)
GI50 (NCI/ADR-RES): 2.7 µM (inactive)
GI50 (NCI-H460): 2.42 µM (inactive)
GI50 (TK-10): 4.06 µM (inactive)
GI50 (NCI-H522): 2.16 µM (inactive)
GI50 (DU-145): 16.1 µM (inactive)
GI50 (IGROV-1): 1.78 µM (inactive)
GI50 (KM12): 4.36 µM (inactive)
GI50 (OVCAR-4): 1.56 µM (inactive)
GI50 (MOLT-4): 3.65 µM (inactive)
GI50 (M14): 7.57 µM (inactive)
GI50 (ACHN): 2.85 µM (inactive)
GI50 (SNB-75): 25.9 µM (inactive)
GI50 (Malme-3M): 7.59 µM (inactive)
GI50 (Hs-578T): 16.6 µM (inactive)
GI50 (UO-31): 2.89 µM (inactive)
GI50 (HT-29): 3.05 µM (inactive)
GI50 (MDA-N): 11 µM (inactive)
GI50 (MCF7): 3.64 µM (inactive)
GI50 (HOP-62): 7.67 µM (inactive)
GI50 (HCC 2998): 4.06 µM (inactive)
GI50 (CCRF-CEM): 2.92 µM (inactive)
GI50 (T47D): 6.65 µM (inactive)
GI50 (SF-295): 4.52 µM (inactive)
GI50 (NCI-H226): 4.67 µM (inactive)
GI50 (OVCAR-8): 2.77 µM (inactive)
GI50 (EKVX): 4.3 µM (inactive)
GI50 (RPMI-8226): 3.28 µM (inactive)
GI50 (SK-MEL-5): 2.09 µM (inactive)
GI50 (HOP-92): 1.73 µM (inactive)
GI50 (NCI-H23): 5.08 µM (inactive)
GI50 (MDA-MB-231): 9.53 µM (inactive)
GI50 (SK-MEL-2): 18 µM (inactive)
GI50 (HCT-116): 3.88 µM (inactive)
GI50 (CAKI-1): 5.09 µM (inactive)
GI50 (PC-3): 3.36 µM (inactive)
GI50 (OVCAR-5): 15.8 µM (inactive)
GI50 (786-0): 5.25 µM (inactive)
GI50 (RXF 393): 9.77 µM (inactive)
GI50 (UACC-62): 3.71 µM (inactive)
GI50 (SF-539): 5.22 µM (inactive)

O=[N+]([O-])c1nccn1CC(O)CN1CCCCC1 (configuration not stated) [PIMONIDAZOLE]
GI50 (SK-MEL-28): > 100 µM (inactive)
GI50 (BT-549): > 100 µM (inactive)
GI50 (SK-OV-3): > 100 µM (inactive)
GI50 (HL-60): > 100 µM (inactive)
GI50 (OVCAR-3): > 100 µM (inactive)
GI50 (A498): > 100 µM (inactive)
GI50 (UACC-257): > 100 µM (inactive)
GI50 (HCT-15): > 100 µM
GI50 (SR): > 100 µM (inactive)
GI50 (LOX IMVI): > 100 µM (inactive)
GI50 (COLO 205): > 100 µM (inactive)
GI50 (U-251): > 100 µM (inactive)
GI50 (SN12C): > 100 µM (inactive)
GI50 (K562): > 100 µM (inactive)
GI50 (SW-620): > 100 µM (inactive)
GI50 (A549): > 100 µM (inactive)
GI50 (SNB-19): > 100 µM (inactive)
GI50 (SF-268): > 100 µM (inactive)
GI50 (MDA-MB-435): > 100 µM (inactive)
GI50 (NCI/ADR-RES): > 100 µM (inactive)
GI50 (NCI-H460): > 100 µM (inactive)
GI50 (TK-10): > 100 µM (inactive)
GI50 (NCI-H522): > 100 µM (inactive)
GI50 (DU-145): > 100 µM (inactive)
GI50 (IGROV-1): > 100 µM (inactive)
GI50 (KM12): > 100 µM (inactive)
GI50 (OVCAR-4): > 100 µM (inactive)
GI50 (MOLT-4): > 100 µM (inactive)
GI50 (M14): > 100 µM (inactive)
GI50 (ACHN): > 100 µM (inactive)
GI50 (SNB-75): > 100 µM (inactive)
GI50 (Malme-3M): > 100 µM (inactive)
GI50 (Hs-578T): > 100 µM (inactive)
GI50 (UO-31): > 100 µM (inactive)
GI50 (HT-29): > 100 µM (inactive)
GI50 (MDA-N): > 100 µM (inactive)
GI50 (MCF7): > 100 µM (inactive)
GI50 (HOP-62): > 100 µM (inactive)
GI50 (HCC 2998): > 100 µM (inactive)
GI50 (CCRF-CEM): > 100 µM (inactive)
GI50 (T47D): > 100 µM (inactive)
GI50 (SF-295): > 100 µM (inactive)
GI50 (NCI-H226): > 100 µM (inactive)
GI50 (OVCAR-8): > 100 µM (inactive)
GI50 (EKVX): > 100 µM (inactive)
GI50 (RPMI-8226): > 100 µM (inactive)
GI50 (SK-MEL-5): > 100 µM (inactive)
GI50 (HOP-92): > 100 µM (inactive)
GI50 (NCI-H23): > 100 µM (inactive)
GI50 (MDA-MB-231): > 100 µM (inactive)
GI50 (SK-MEL-2): > 100 µM (inactive)
GI50 (HCT-116): > 100 µM (inactive)
GI50 (CAKI-1): > 100 µM (inactive)
GI50 (PC-3): > 100 µM (inactive)
GI50 (OVCAR-5): > 100 µM (inactive)
GI50 (786-0): > 100 µM (inactive)
GI50 (RXF 393): > 100 µM (inactive)
GI50 (UACC-62): > 100 µM (inactive)
GI50 (SF-539): > 100 µM (inactive)

CCCCCC(O)C1C(=O)OC(C)C(O)/C=C/C=C/C=C/C=C\C=C(\C)C(O)CC(O)CC(O)CC(O)CC(O)CC(O)CC1O (configuration not stated)
GI50 (SK-MEL-28): > 50 µM (inactive)
GI50 (BT-549): > 50 µM (inactive)
GI50 (SK-OV-3): > 50 µM (inactive)
GI50 (HL-60): > 50 µM (inactive)
GI50 (OVCAR-3): > 50 µM (inactive)
GI50 (A498): > 50 µM (inactive)
GI50 (UACC-257): 34.6 µM (inactive)
GI50 (HCT-15): > 50 µM
GI50 (SR): > 50 µM (inactive)
GI50 (LOX IMVI): > 50 µM (inactive)
GI50 (COLO 205): > 50 µM (inactive)
GI50 (U-251): > 50 µM (inactive)
GI50 (SN12C): > 50 µM (inactive)
GI50 (K562): > 50 µM (inactive)
GI50 (SW-620): > 50 µM (inactive)
GI50 (A549): > 50 µM (inactive)
GI50 (SNB-19): > 50 µM (inactive)
GI50 (SF-268): > 50 µM (inactive)
GI50 (MDA-MB-435): > 50 µM (inactive)
GI50 (NCI/ADR-RES): > 50 µM (inactive)
GI50 (NCI-H460): > 50 µM (inactive)
GI50 (TK-10): > 50 µM (inactive)
GI50 (NCI-H522): > 50 µM (inactive)
GI50 (DU-145): > 50 µM (inactive)
GI50 (IGROV-1): > 50 µM (inactive)
GI50 (KM12): > 50 µM (inactive)
GI50 (OVCAR-4): 11.1 µM (inactive)
GI50 (MOLT-4): > 50 µM (inactive)
GI50 (M14): > 50 µM (inactive)
GI50 (ACHN): > 50 µM (inactive)
GI50 (SNB-75): > 50 µM (inactive)
GI50 (Malme-3M): > 50 µM (inactive)
GI50 (Hs-578T): > 50 µM (inactive)
GI50 (UO-31): > 50 µM (inactive)
GI50 (HT-29): > 50 µM (inactive)
GI50 (MDA-N): > 50 µM (inactive)
GI50 (MCF7): > 50 µM (inactive)
GI50 (HOP-62): > 50 µM (inactive)
GI50 (HCC 2998): > 50 µM (inactive)
GI50 (CCRF-CEM): > 50 µM (inactive)
GI50 (T47D): > 50 µM (inactive)
GI50 (SF-295): > 50 µM (inactive)
GI50 (NCI-H226): > 50 µM (inactive)
GI50 (OVCAR-8): > 50 µM (inactive)
GI50 (EKVX): > 50 µM (inactive)
GI50 (RPMI-8226): > 50 µM (inactive)
GI50 (SK-MEL-5): > 50 µM (inactive)
GI50 (HOP-92): > 50 µM (inactive)
GI50 (NCI-H23): > 50 µM (inactive)
GI50 (MDA-MB-231): > 50 µM (inactive)
GI50 (SK-MEL-2): > 50 µM (inactive)
GI50 (HCT-116): > 50 µM (inactive)
GI50 (CAKI-1): > 50 µM (inactive)
GI50 (PC-3): > 50 µM (inactive)
GI50 (OVCAR-5): > 50 µM (inactive)
GI50 (786-0): > 50 µM (inactive)
GI50 (RXF 393): > 50 µM (inactive)
GI50 (UACC-62): > 50 µM (inactive)
GI50 (SF-539): > 50 µM (inactive)
